Values of other authors, collected in patent publication US11553715B2, “Synthesis and formulation of lignin derived compounds as treatment of plant diseases” (University of Kentucky Research Foundation, priority 2019, dated 2023).

In the case of `COc1cc(C=O)ccc1O` [Vanillin], the “antimicrobial concentration as a food preservative” value (bacteria) is listed as 1.5 mg/mL and the “antimicrobial concentration as a food preservative” value (yeast) is listed as 0.76 mg/mL.
